Measured values published in US11065304B2, “Peptide pharmaceuticals for insulin resistance” (MEDERIS DIABETES, LLC, priority 2012, dated 2021).

Key:
GLP-1 R [1] = target: T1, GLP-1 R (Homo sapiens, UniProt P43220); assay: DiscoveRx LeadHunter cellular assay, cAMP stimulation, GLP-1 receptor; type: cell-based
Description: (§1) § means superagonist A further series of cellular assays were carried out using standard cellular assays (DiscoveRx, LeadHunter assays) using readout of cAMP stimulation or arrestin activation. Compounds were weighed precisely in an amount of approximately 1 mg and shipped to DiscoveRx for dilution and assay.

GLP-1 R [2] = target: T1, GLP-1 R; assay: DiscoveRx LeadHunter cellular assay, arrestin activation, GLP-1 receptor; type: cell-based
Description: as §1

glucagon R = target: T2, glucagon R (Homo sapiens, UniProt P47871); assay: DiscoveRx LeadHunter cellular assay, cAMP stimulation, glucagon receptor; type: cell-based
T2 construct: host or cells: CHO cells
T2 sequence (P47871 26-477): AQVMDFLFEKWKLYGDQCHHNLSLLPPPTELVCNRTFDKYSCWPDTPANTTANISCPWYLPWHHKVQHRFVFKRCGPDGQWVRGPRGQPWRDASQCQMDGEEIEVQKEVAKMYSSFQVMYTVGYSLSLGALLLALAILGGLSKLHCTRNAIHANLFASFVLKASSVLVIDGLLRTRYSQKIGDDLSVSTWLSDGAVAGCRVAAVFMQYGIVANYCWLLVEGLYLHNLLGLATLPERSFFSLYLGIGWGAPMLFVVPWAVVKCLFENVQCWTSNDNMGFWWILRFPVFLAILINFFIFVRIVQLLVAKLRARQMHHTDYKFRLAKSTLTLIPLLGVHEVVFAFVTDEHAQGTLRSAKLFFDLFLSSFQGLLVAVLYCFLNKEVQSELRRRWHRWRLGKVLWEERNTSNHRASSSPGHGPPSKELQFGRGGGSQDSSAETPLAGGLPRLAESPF
Description: as §1

db/db mice = assay: In vivo assay in db/db mice (blood glucose, body weight, food consumption); details: for db/db mice - Mean Blood Glucose, 10 hr: 10 hr after first dose; for db/db mice - Mean Blood Glucose, 24 hr: 24 hr after first dose; for db/db mice - Mean Blood Glucose, 48 hr: 48 hr after first dose
Description: The 60 female db/db B6BKS (D) Leprdb/J (strain 000697) mice for this study were approximately 8 to 9 weeks old at arrival (Jackson Laboratory, Bar Harbor, Me.). […] One group of 8 female mice served as the vehicle control and received the vehicle, 0.2% BSA in saline, pH 7.4. One additional group of 8 female mice received the positive control article, liraglutide, at a dose level of 50 nmoles/kg. The test articles, vehicle, and positive control article were administered on Day 1, at approximately 0, 7, and 24 hours during the study via subcutaneous injection at a dose volume of 6 mL/kg.
Clinical observations were conducted at receipt, prior to randomization, and daily from Days 1 to 5. Body weights were measured and recorded at receipt, prior to randomization, and daily from Days 1 to 5. Food consumption was measured and recorded daily from Days 1 to 5. Blood samples for glucose analysis were collected pretest (Day −3) and at 0, 1, 2, 4, 8, 10, 24, 48, 72, and 96 hours following the first dose on Day 1. At study termination all animals were euthanized and the carcasses were discarded without further evaluation.

T1 sequence (P43220 24-463): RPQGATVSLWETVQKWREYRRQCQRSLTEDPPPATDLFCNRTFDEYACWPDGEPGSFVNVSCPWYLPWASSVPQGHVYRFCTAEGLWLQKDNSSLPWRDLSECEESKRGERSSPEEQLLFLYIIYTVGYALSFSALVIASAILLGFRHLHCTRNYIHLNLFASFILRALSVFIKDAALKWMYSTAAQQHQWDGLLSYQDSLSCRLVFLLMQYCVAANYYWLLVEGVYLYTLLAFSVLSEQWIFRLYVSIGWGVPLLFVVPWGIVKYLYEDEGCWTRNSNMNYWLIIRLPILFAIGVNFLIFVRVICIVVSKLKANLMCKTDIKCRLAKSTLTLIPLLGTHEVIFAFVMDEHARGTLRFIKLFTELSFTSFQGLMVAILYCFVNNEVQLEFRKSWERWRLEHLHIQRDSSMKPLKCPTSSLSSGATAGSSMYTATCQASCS

| SMILES | EC50 (GLP-1 R [1]) [nM] | EC50 (GLP-1 R [2]) [nM] | EC50 (glucagon R) [nM] | db/db mice - Mean Blood Glucose, 0 hr (db/db mice; 250 nmole/kg s.c.) [mg/dL] | db/db mice - Mean Blood Glucose, 10 hr (db/db mice; 250 nmole/kg s.c.) [mg/dL] | db/db mice - Mean Blood Glucose, 24 hr (db/db mice; 250 nmole/kg s.c.) [mg/dL] | db/db mice - Mean Blood Glucose, 48 hr (db/db mice; 250 nmole/kg s.c.) [mg/dL] | db/db mice - Mean Blood Glucose, 0 hr (db/db mice; 300 nmole/kg s.c.) [mg/dL] | db/db mice - Mean Blood Glucose, 10 hr (db/db mice; 300 nmole/kg s.c.) [mg/dL] | db/db mice - Mean Blood Glucose, 24 hr (db/db mice; 300 nmole/kg s.c.) [mg/dL] | db/db mice - Mean Blood Glucose, 48 hr (db/db mice; 300 nmole/kg s.c.) [mg/dL] | glucose levels versus vehicle (db/db mice; db/db mice, 10 and 24 hours, high dose (300 nmoles/kg)) | food consumption versus Liraglutide (db/db mice; db/db mice, Day 1, high dose (300 nmoles/kg)) | body weight changes against vehicle (db/db mice; db/db mice, Days 2 and 3, liraglutide 50 nmoles/kg, test articles high dose (300 nmoles/kg)) |
| --- | --- | --- | --- | --- | --- | --- | --- | --- | --- | --- | --- | --- | --- | --- |
| CCCCCCCCCCCCO[C@@H]1O[C@H](C(=O)NCCCC[C@H](NC(=O)[C@@H](NC(=O)[C@H](Cc2ccccc2)NC(=O)[C@H](CCC(=O)O)NC(=O)[C@@H]2CCCCNC(=O)CC[C@H](NC(=O)[C@H](CC(=O)O)NC(=O)[C@H](CC(C)C)NC(=O)[C@H](Cc3ccc(O)cc3)NC(=O)[C@H](CCCCN)NC(=O)[C@H](CO)NC(=O)[C@H](Cc3ccc(O)cc3)NC(=O)[C@H](CC(=O)O)NC(=O)[C@H](CO)NC(=O)[C@@H](NC(=O)[C@H](Cc3ccccc3)NC(=O)[C@@H](NC(=O)CNC(=O)[C@H](CCC(N)=O)NC(=O)C(C)(C)NC(=O)[C@@H](N)Cc3c[nH]cn3)[C@@H](C)O)[C@@H](C)O)C(=O)N[C@@H](CCC(N)=O)C(=O)N[C@@H](C)C(=O)N[C@@H](C)C(=O)N2)[C@@H](C)CC)C(=O)N[C@@H](Cc2c[nH]c3ccccc23)C(=O)N[C@@H](CC(C)C)C(=O)N[C@@H](CC(C)C)C(=O)N[C@@H](CCC(N)=O)C(=O)N[C@H](C(N)=O)[C@@H](C)O)[C@@H](O)[C@H](O)[C@H]1O [EU-A993, His1-Aib2-Gln3-Gly4-Thr5-Phe6-Thr7-Ser8-Asp9-Tyr10-Ser11-Lys12-Tyr13-Leu14-Asp15-Glu*16-Gln17 Ala18-Ala19-Lys*20-Glu21-Phe22-Ile23-Lys(N-omega(1-dodecylbeta-D-glucuronyl))24-Trp25-Leu26-Leu27-Gln28-Thr29-NH2] | < 0.05 | 12.3 | < 0.05 | 503 | 305 | 324 | 426 | – | – | – | – | – | – | – |
| CCCCCCCCCCCCCCO[C@@H]1O[C@H](C(=O)NCCCC[C@H](NC(=O)[C@@H](NC(=O)[C@H](Cc2ccccc2)NC(=O)[C@H](CCC(=O)O)NC(=O)[C@@H]2CCCCNC(=O)CC[C@H](NC(=O)[C@H](CC(=O)O)NC(=O)[C@H](CC(C)C)NC(=O)[C@H](Cc3ccc(O)cc3)NC(=O)[C@H](CCCCN)NC(=O)[C@H](CO)NC(=O)[C@H](Cc3ccc(O)cc3)NC(=O)[C@H](CC(=O)O)NC(=O)[C@H](CO)NC(=O)[C@@H](NC(=O)[C@H](Cc3ccccc3)NC(=O)[C@@H](NC(=O)CNC(=O)[C@H](CCC(N)=O)NC(=O)C(C)(C)NC(=O)[C@@H](N)Cc3c[nH]cn3)[C@@H](C)O)[C@@H](C)O)C(=O)N[C@@H](CCC(N)=O)C(=O)N[C@@H](C)C(=O)N[C@@H](C)C(=O)N2)[C@@H](C)CC)C(=O)N[C@@H](Cc2c[nH]c3ccccc23)C(=O)N[C@@H](CC(C)C)C(=O)N[C@@H](CC(C)C)C(=O)N[C@@H](CCC(N)=O)C(=O)N[C@H](C(N)=O)[C@@H](C)O)[C@@H](O)[C@H](O)[C@H]1O [EU-A994, His1-Aib2-Gln3-Gly4-Thr5-Phe6-Thr7-Ser8-Asp9-Tyr10-Ser11-Lys12-Tyr13-Leu14-Asp15-Glu*16-Gln17 Ala18-Ala19-Lys*20-Glu21-Phe22-Ile23-Lys(N-omega(1-tetradecylbeta-D-glucuronyl))24-Trp25-Leu26-Leu27-Gln28-Thr29-NH2] | 0.05 | 10.2 | < 0.05 | – | – | – | – | 554 | 242 | 209 | 385 | significantly different from vehicle | significantly different from Liraglutide | Significant body weight changes |
